For orientation: pKi means the negative decadic logarithm of the Ki, by convention in mol/L. A lower pKi goes with a high Ki.

pKi: −log10 of the molar value. The source made the active and inactive calls. No cut-off for these calls is given here.

Experiment [1] concerns the target Cholinesterase (Equus caballus) (UniProt P81908). The experiment in a line: Inhibition of equine serum BChE using butyrylthiocholine iodide as substrate up to 100 nM after 60 mins by Ellman's method. On the technique in general: DTNB colorimetry detects thiols as they appear.
The next experiment has as its target Acetylcholinesterase (Homo sapiens, UniProt P22303).

Acetylcholinesterase, sequence (P22303 whole entry): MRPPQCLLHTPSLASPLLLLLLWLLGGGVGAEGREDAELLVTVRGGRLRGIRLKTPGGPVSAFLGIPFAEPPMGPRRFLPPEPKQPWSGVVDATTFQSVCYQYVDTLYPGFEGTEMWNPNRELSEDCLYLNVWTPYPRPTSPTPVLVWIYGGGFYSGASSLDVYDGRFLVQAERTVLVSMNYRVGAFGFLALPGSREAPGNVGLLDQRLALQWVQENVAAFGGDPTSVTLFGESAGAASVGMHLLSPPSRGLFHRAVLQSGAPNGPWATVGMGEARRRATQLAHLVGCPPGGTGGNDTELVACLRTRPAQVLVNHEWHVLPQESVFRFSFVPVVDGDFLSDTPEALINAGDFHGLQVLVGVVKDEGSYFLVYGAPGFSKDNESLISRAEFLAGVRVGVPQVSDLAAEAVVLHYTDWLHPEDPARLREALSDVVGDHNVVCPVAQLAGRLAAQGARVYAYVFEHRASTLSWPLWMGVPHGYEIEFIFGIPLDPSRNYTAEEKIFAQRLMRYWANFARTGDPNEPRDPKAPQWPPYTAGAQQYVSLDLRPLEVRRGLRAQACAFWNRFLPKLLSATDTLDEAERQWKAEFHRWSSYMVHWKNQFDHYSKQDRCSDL
Cholinesterase (Equus caballus), sequence (P81908 whole entry): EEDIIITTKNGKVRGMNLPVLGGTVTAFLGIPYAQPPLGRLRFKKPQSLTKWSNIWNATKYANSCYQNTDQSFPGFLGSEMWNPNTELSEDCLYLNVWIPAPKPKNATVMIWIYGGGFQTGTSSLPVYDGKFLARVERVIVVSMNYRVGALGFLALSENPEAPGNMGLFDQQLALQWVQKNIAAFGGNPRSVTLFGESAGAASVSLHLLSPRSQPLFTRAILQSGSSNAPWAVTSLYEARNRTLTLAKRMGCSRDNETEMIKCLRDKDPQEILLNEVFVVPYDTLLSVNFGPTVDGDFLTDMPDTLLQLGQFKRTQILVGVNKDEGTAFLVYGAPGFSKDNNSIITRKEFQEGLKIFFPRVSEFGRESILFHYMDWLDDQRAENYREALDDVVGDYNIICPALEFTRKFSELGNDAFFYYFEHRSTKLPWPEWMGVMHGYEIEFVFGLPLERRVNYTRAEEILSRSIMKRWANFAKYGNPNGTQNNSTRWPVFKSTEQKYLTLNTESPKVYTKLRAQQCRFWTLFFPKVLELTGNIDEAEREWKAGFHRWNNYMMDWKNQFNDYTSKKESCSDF
Description for Acetylcholinesterase: Inhibition of human erythrocyte AChE using acetylthiocholine iodide as substrate after 60 mins by Ellman's method

In the case of `Oc1ccccc1[C@@H]1CC(c2c3ccccc3cc3ccccc23)=NN1`, the inhibition entry in experiment [1] was “inactive”. The pKi on Acetylcholinesterase is 7.61.

Take `c1ccc([C@@H]2CC(c3c4ccccc4cc4ccccc34)=NN2)cc1`: the inhibition entry in experiment [1] was “inactive”. Further, on Acetylcholinesterase, the pKi is 7.52.

With `Oc1ccc([C@@H]2CC(c3c4ccccc4cc4ccccc34)=NN2)c(O)c1`, the inhibition entry in experiment [1] was “inactive”. The negative-log Ki (pKi) on Acetylcholinesterase is 8.14.

For the compound `O=[N+]([O-])c1cccc([C@@H]2CC(c3c4ccccc4cc4ccccc34)=NN2)c1`, the inhibition entry in experiment [1] was “inactive”. Also, the pKi on Acetylcholinesterase is 7.69.

The compound `Oc1ccc([C@@H]2CC(c3c4ccccc4cc4ccccc34)=NN2)cc1` gave a pKi on Acetylcholinesterase of less than 7.00.

Consider `Cc1ccc([C@@H]2CC(c3c4ccccc4cc4ccccc34)=NN2)cc1`, for which, at Acetylcholinesterase, the pKi was less than 7.00.

As to `c1ccc([C@@H]2CC(c3c4ccccc4cc4ccccc34)=NN2)nc1`, the inhibition entry in experiment [1] is “inactive”. On Acetylcholinesterase, this compound gave a pKi of 7.38.

`COc1ccc([C@@H]2CC(c3c4ccccc4cc4ccccc34)=NN2)cc1`: in experiment [1], the inhibition entry was “inactive”. The compound further gave a pKi on Acetylcholinesterase of 7.60.

Compound `O=[N+]([O-])c1ccc([C@@H]2CC(c3c4ccccc4cc4ccccc34)=NN2)cc1` showed a negative-log Ki (pKi) at Acetylcholinesterase of less than 7.00.

Take `Clc1ccc([C@@H]2CC(c3c4ccccc4cc4ccccc34)=NN2)cc1`: in experiment [1], the inhibition entry is “inactive”.

The values above are taken from ChEMBL document CHEMBL2311270, “Additional acetyl cholinesterase inhibitory property of diaryl pyrazoline derivatives” (Bioorg Med Chem Lett, 2013).
